Data as given in ChEMBL document CHEMBL1128242, “Polyiodinated triglyceride analogs as potential computed tomography imaging agents for the liver” (J Med Chem, 1995).

Legend:
Assay type in all cases: ADME, organism-based
Rattus norvegicus [1] = experiment: Distribution of radioactivity was determined in spleen at 30 min after intravenous administration of 1,3-Disubstituted Triacylglycerols in rats; settings: in vivo, 0.5 h
Rattus norvegicus [2] = experiment: Distribution of radioactivity was determined in blood at 24 hr after intravenous administration of [125I]-labeled 2-oleoglycerol 1,3-Bis-[omega-(3-amino-2,4,6-triiodophenyl)alkanoates] in rats; settings: in vivo
Rattus norvegicus [3] = experiment: Distribution of radioactivity was determined in kidney at 30 min after intravenous administration of [125I]-labeled 2-oleoglycerol 1,3-Bis-[omega-(3-amino-2,4,6-triiodophenyl)alkanoates] in rats; settings: in vivo, 0.5 h
Rattus norvegicus [4] = experiment: Polyacrylamide Gel Electrophoresis (PAGE) to determined the concentration of low density lipoprotein (LDL) in rats after iv administration of [125I]-labeled 2-Oleolyl 1,3-disubstituted triglycerols was reported; settings: in vivo
Rattus norvegicus [5] = experiment: Distribution of radioactivity was determined in blood at 24 hr after intravenous administration of 1,3-Disubstituted Triacylglycerols in rats; settings: in vivo
Rattus norvegicus [6] = experiment: Distribution of radioactivity was determined in liver at 3h after intravenous administration of [125I]-labeled 2-oleoglycerol 1,3-Bis-[omega-(3-amino-2,4,6-triiodophenyl)alkanoates] in rats; settings: in vivo
Rattus norvegicus [7] = experiment: Polyacrylamide Gel Electrophoresis (PAGE) to determined the concentration of stacking gel(SG) in rats after iv administration of [125I]-labeled 2-Oleolyl 1,3-disubstituted triglycerols was reported; settings: in vivo
Rattus norvegicus [8] = experiment: Distribution of radioactivity was determined in blood at 3h after intravenous administration of 1,3-Disubstituted Triacylglycerols in rats; settings: in vivo
Rattus norvegicus [9] = experiment: Distribution of radioactivity was determined in plasma at 24 hr after intravenous administration of [125I]-labeled 2-oleoglycerol 1,3-Bis-[omega-(3-amino-2,4,6-triiodophenyl)alkanoates] in rats; parameters: unit not given here; settings: in vivo
Rattus norvegicus [10] = experiment: Distribution of radioactivity was determined in blood at 30 min after intravenous administration of 1,3-Disubstituted Triacylglycerols in rats; settings: in vivo, 0.5 h
Rattus norvegicus [11] = experiment: Distribution of radioactivity was determined in plasma at 3h after intravenous administration of [125I]-labeled 2-oleoglycerol 1,3-Bis-[omega-(3-amino-2,4,6-triiodophenyl)alkanoates] in rats; settings: in vivo
Rattus norvegicus [12] = experiment: Distribution of radioactivity was determined in spleen at 30 min after intravenous administration of [125I]-labeled 2-oleoglycerol 1,3-Bis-[omega-(3-amino-2,4,6-triiodophenyl)alkanoates] in rats; settings: in vivo, 0.5 h
Rattus norvegicus [13] = experiment: Analysis of lipid-soluble radioactivity in plasma 0.5 hour after iv administration of [125I]-labeled 2-Oleoyl 1,3-disubstituted Triacylglycerols expressed as %parent compound (by TLC with authentic [125I]-labeled standard) from rat; settings: in vivo

SMILES | Distribution of radioactivity (Rattus norvegicus [1]) [% dose/organ] | Distribution of radioactivity (Rattus norvegicus [2]) [% dose/g] | Distribution of radioactivity (Rattus norvegicus [3]) [% dose/g] | Radioactivity (Rattus norvegicus [4]) [%] | Distribution of radioactivity (Rattus norvegicus [5]) [% dose/organ] | Distribution of radioactivity (Rattus norvegicus [6]) [% dose/g] | Radioactivity (Rattus norvegicus [7]) [%] | Distribution of radioactivity (Rattus norvegicus [8]) [% dose/organ] | Distribution of radioactivity (Rattus norvegicus [9]) | Distribution of radioactivity (Rattus norvegicus [10]) [% dose/organ] | Distribution of radioactivity (Rattus norvegicus [11]) [% dose/g] | Distribution of radioactivity (Rattus norvegicus [12]) [% dose/g] | Lipid-soluble radioactivity (Rattus norvegicus [13])
CCCCCCCC/C=C/CCCCCCCC(=O)OC(COC(=O)CCc1c(I)cc(I)c(N)c1I)COC(=O)CCc1c(I)cc(I)c(N)c1I | 13 | 0.04 | 0.11 | 8.3 | 0.4 | 10.9 | 67.3 | 0.7 | 0.05 | 5.1 | 0.09 | 27.6 | 
CCCCCCCC/C=C/CCCCCCCC(=O)OC(COC(=O)CCCc1c(I)cc(I)c(N)c1I)COC(=O)CCCc1c(I)cc(I)c(N)c1I | 13.7 | 0.15 | 0.14 | 3.2 | 1.5 | 13.8 | 80.9 | 0.9 | 0.24 | 5.8 | 0.13 | 31.7 | 85.8
